Test system: NBD1
Assay: Aggregation analysis of NBD1 thermal stability by differential static light scattering (DSLS)
Format: binding, Human
Conditions: 100 μM compound; ΔTagg versus DMSO control
Protocol: Purified recombinant NBD1 was produced using previously described methods (A. Schmidt, J. L. Mendoza, P. J. Thomas (2011) Biochemical and Biophysical Approaches to Probe CFTR Structure (365-376) M. D. Amaral, K. Kunzelmann (eds.), Cystic Fibrosis, Methods in Molecular Biology 741, Springer Science+Business Media). The effect of test compounds on thermal stability of NBD1 was evaluated by differential static light scattering (DSLS) using the Harbinger Stargazer-384 instrument (Epiphyte Three, Toronto, Canada). Test compounds were dissolved and diluted to desired concentrations in 100% DMSO. The compounds or DMSO controls (100 nL) were stamped into wells of a […] low volume optical plate (Corning Inc., Corning, NY) using the Echo 555 acoustic liquid handler (Labcyte Inc., San Jose, CA).
NBD1 protein was diluted to 0.2 mg/ml in S200 buffer (50 mM Tris-HCl, 150 mM NaCl, 5 mM MgCl2, 2 mM ATP, 2 mM DTT, pH7.6) containing 1% glycerol. 10 uL of protein solution was aliquoted into the 384-well plate harboring the test compounds and 10 uL mineral oil was overlayed onto the protein solution, using the epMotion robotic liquid handler (Eppendorf North America, Hauppauge, NY). After placing into the Stargazer instrument, the plate was heated at 1° C. per minute to 70° C. Images were captured from 25° C. to 70° C. every 0.5° C. At the end of the experiment run, instrument software integrated image files and analyzed data automatically. A […] regression curve was generated for each well, representing the increase in light scattering over time. A temperature of aggregation (Tagg) was calculated based on the inflection point of the curve. To better compare data across experiments the average Tagg for DMSO control wells was calculated and subtracted from values for wells containing compounds to obtain a “ΔTagg” value. These ΔTagg values reflect stabilizing efficacy of the compounds.

Structure (SMILES) | DSLS NBD1/3D Human Stability delta-T (° C.) @ 100 (μM)
O[C@H](Cc1cncs1)c1c[nH]c(-c2cccc(Oc3ccc4[nH]ccc4c3)c2)n1 (single isomer, unassigned) [Compound 23] | B (B: 4-8° C.)
O[C@@H](Cc1cncs1)c1c[nH]c(-c2cccc(Oc3ccc4[nH]ccc4c3)c2)n1 (single isomer, unassigned) [Compound 24] | C (C: ≤4° C.)
C[C@H](c1nc(-c2cc(Oc3c(F)cc4[nH]ccc4c3F)ccc2F)n(C)n1)c1ccc(CCC(=O)O)s1 (single isomer, unassigned) [Compound 45] | A (A: T ≥8° C.)
Cc1c(Oc2ccc(F)c(-c3nc(Cc4csc(CCC(=O)O)n4)c[nH]3)c2)c(F)cc2[nH]ccc12 [Compound 1, 3-(4-((2-(2-fluoro-5-((6-fluoro-4-methyl-1H-indol-5-yl)oxy)phenyl)-1H-imidazol-4-yl)methyl)thiazol-2-yl)propanoic acid] | B (B: 4-8° C.)
O=C(O)CCc1ncc(Cc2cnc(-c3cc(Oc4c(F)cc5[nH]ccc5c4F)ccc3F)[nH]2)s1 [Compound 2, 3-(5-((2-(5-((4,6-difluoro-1H-indol-5-yl)oxy)-2-fluorophenyl)-1H-imidazol-5-yl)methyl)thiazol-2-yl)propanoic acid] | B (B: 4-8° C.)
NC(=O)CCc1ncc(Cc2cnc(-c3cc(Oc4c(F)cc5[nH]ccc5c4F)ccc3F)[nH]2)s1 [Compound 3, 3-(5-((2-(5-((4,6-difluoro-1H-indol-5-yl)oxy)-2-fluorophenyl)-1H-imidazol-5-yl)methyl)thiazol-2-yl)propanamide] | C (C: ≤4° C.)
O=C(O)CCn1ccc(Cc2cnc(-c3cc(Oc4c(F)cc5[nH]ccc5c4F)ccc3F)[nH]2)n1 [Compound 5, 3-(3-((2-(5-((4,6-difluoro-1H-indol-5-yl)oxy)-2-fluorophenyl)-1H-imidazol-5-yl)methyl)-1H-pyrazol-1-yl)propanoic acid] | B (B: 4-8° C.)
Cc1c(Oc2ccc(F)c(-c3ccn(Cc4cnc(CCC(N)=O)s4)n3)c2)c(F)cc2[nH]ccc12 [Compound 6] | C (C: ≤4° C.)
Cc1c[nH]c2cc(F)c(Oc3ccc(F)c(-c4ccn(Cc5cnc(CCC(N)=O)s5)n4)c3)cc12 [Compound 7, 3-(5-((3-(2-fluoro-5-((6-fluoro-3-methyl-1H-indol-5-yl)oxy)phenyl)-1H-pyrazol-1-yl)methyl)thiazol-2-yl)propanamide] | C (C: ≤4° C.)
Cc1ccc(Cc2nnc(-c3cccc(Oc4cc5cc[nH]c5cn4)c3)[nH]2)s1 [Compound 8, 5-(3-(5-((5-methylthiophen-2-yl)methyl)-4H-1,2,4-triazol-3-yl)phenoxy)-1H-pyrrolo[2,3-c]pyridine] | C (C: ≤4° C.)
Cc1cc(Cc2nnc(-c3cccc(Oc4cc5cc[nH]c5cn4)c3)[nH]2)cs1 [Compound 9, 5-(3-(5-((5-methylthiophen-3-yl)methyl)-4H-1,2,4-triazol-3-yl)phenoxy)-1H-pyrrolo[2,3-c]pyridine] | C (C: ≤4° C.)
c1cc(Oc2ccc3[nH]ccc3c2)cc(-c2nnc(Cc3ccsc3)[nH]2)c1 [Compound 11, 5-(3-(5-(thiophen-3-ylmethyl)-4H-1,2,4-triazol-3-yl)phenoxy)-1H-indole] | C (C: ≤4° C.)
c1cc(Oc2ccc3[nH]ccc3c2)cc(-c2nnc(Cc3nccs3)[nH]2)c1 [Compound 12, 2-((5-(3-((1H-indol-5-yl)oxy)phenyl)-4H-1,2,4-triazol-3-yl)methyl)thiazole] | C (C: ≤4° C.)
c1cc(Oc2ccc3[nH]ccc3c2)cc(-c2nnc(Cc3cscn3)[nH]2)c1 [Compound 13, 4-((5-(3-((1H-indol-5-yl)oxy)phenyl)-4H-1,2,4-triazol-3-yl)methyl)thiazole] | C (C: ≤4° C.)
c1cc(Oc2ccc3[nH]ccc3c2)cc(-c2nnc(Cc3cncs3)[nH]2)c1 [Compound 14, 5-((5-(3-((1H-indol-5-yl)oxy)phenyl)-4H-1,2,4-triazol-3-yl)methyl)thiazole] | C (C: ≤4° C.)
Cc1csc(Cc2nnc(-c3cccc(Oc4ccc5[nH]ccc5c4)c3)[nH]2)n1 [Compound 15, 2-((5-(3-((1H-indol-5-yl)oxy)phenyl)-4H-1,2,4-triazol-3-yl)methyl)-4-methylthiazole] | C (C: ≤4° C.)
Cc1cnc(Cc2nnc(-c3cccc(Oc4ccc5[nH]ccc5c4)c3)[nH]2)s1 [Compound 16, 2-((5-(3-((1H-indol-5-yl)oxy)phenyl)-4H-1,2,4-triazol-3-yl)methyl)-5-methylthiazole] | C (C: ≤4° C.)
Cc1nc(Cc2nnc(-c3cccc(Oc4ccc5[nH]ccc5c4)c3)[nH]2)cs1 [Compound 17, 4-((5-(3-((1H-indol-5-yl)oxy)phenyl)-4H-1,2,4-triazol-3-yl)methyl)-2-methylthiazole] | C (C: ≤4° C.)
Cc1ncc(Cc2nnc(-c3cccc(Oc4ccc5[nH]ccc5c4)c3)[nH]2)s1 [Compound 18, 5-((5-(3-((1H-indol-5-yl)oxy)phenyl)-4H-1,2,4-triazol-3-yl)methyl)-2-methylthiazole] | B (B: 4-8° C.)
Clc1ccc(Cc2n[nH]c(-c3cccc(Oc4cc5cc[nH]c5cn4)c3)n2)s1 [Compound 19, 5-(3-(3-((5-chlorothiophen-2-yl)methyl)-1H-1,2,4-triazol-5-yl)phenoxy)-1H-pyrrolo[2,3-c]pyridine] | C (C: ≤4° C.)
Cc1ccc(C(O)c2c[nH]c(-c3cccc(Oc4ccc5[nH]ccc5c4)c3)n2)s1 (centres unmarked) [Compound 20, (2-(3-((1H-indol-5-yl)oxy)phenyl)-1H-imidazol-4-yl)(5-methylthiophen-2-yl)methanol] | B (B: 4-8° C.)
OC(c1c[nH]c(-c2cccc(Oc3ccc4[nH]ccc4c3)c2)n1)c1nccs1 (centres unmarked) [Compound 21, (2-(3-((1H-indol-5-yl)oxy)phenyl)-1H-imidazol-4-yl)(thiazol-2-yl)methanol] | B (B: 4-8° C.)
Cc1cnc(C(O)c2c[nH]c(-c3cccc(Oc4ccc5[nH]ccc5c4)c3)n2)s1 (centres unmarked) [Compound 22, (2-(3-((1H-indol-5-yl)oxy)phenyl)-1H-imidazol-4-yl)(5-methylthiazol-2-yl)methanol] | B (B: 4-8° C.)
Cn1cc(Cc2nnc(-c3cccc(Oc4ccc5[nH]ccc5c4)c3)[nH]2)cn1 [Compound 25, 5-(3-(5-((1-methyl-1H-pyrazol-4-yl)methyl)-4H-1,2,4-triazol-3-yl)phenoxy)-1H-indole] | C (C: ≤4° C.)
Cn1nccc1C(O)c1cnc(-c2cccc(Oc3ccc4[nH]ccc4c3)c2)[nH]1 (centres unmarked) [Compound 26, (2-(3-((1H-indol-5-yl)oxy)phenyl)-1H-imidazol-5-yl)(1-methyl-1H-pyrazol-5-yl)methanol] | C (C: ≤4° C.)
Cn1cc(C(O)c2cnc(-c3cccc(Oc4ccc5[nH]ccc5c4)c3)[nH]2)cn1 (centres unmarked) [Compound 27, (2-(3-((1H-indol-5-yl)oxy)phenyl)-1H-imidazol-5-yl)(1-methyl-1H-pyrazol-4-yl)methanol] | B (B: 4-8° C.)

— patent US20260242373A1, “NBD1 MODULATORS AND METHODS OF USING THE SAME” (Sionna Therapeutics Inc., priority 2023, published 2026)
